Laboratory results taken from patent publication US20240398841A1, “BLADDER PERFUSION PHARMACEUTICAL COMPOSITION, PREPARATION METHOD THEREFOR AND APPLICATION THEREOF” (priority 2020, published 2024).
Where “and” joins values, the source holds several entries; their conditions need not be identical. Identical values can stand only once. Counter-ions that a name gives are not always drawn.

Columns and labels:
[1] = tested on: bladder in situ tumor (fLuc-MB49 cells); test: Combined perfusion of THP and R837 hydrochloride for bladder in situ tumor, in vivo fluorescence imaging and survival (Example B2); design: species or system mice; conditions: until 35 days
[2] = tested on: MB49 bladder cancer in situ; test: Pirarubicin (THP)/R837 mixed lyophilized powder in bladder perfusion treatment of bladder cancer, tumor mass (Example G2); type: in vivo, mice; conditions: after two bladder perfusions, from tumor mass
Method: Example G2: Application of pirarubicin (THP) used in combination with R837 in the treatment of bladder cancer.
The mice were randomly divided into the following groups:
THP: perfusion of the pirarubicin solution dissolved in 5% glucose solution;
After two times of bladder perfusion treatment, the bladder cancer in the mice was obtained by dissection, and the tumor mass was recorded. […] The Guinness formula q=E(A+B)/(EA+EB−EA*EB) is used to calculate the drug synergy, wherein E(A+B) is the tumor inhibition rate in the compound formulation treatment group, and EA and EB are the tumor inhibition rates when the two components are used respectively.

[3] = tested on: MB49 bladder cancer in situ; test: Doxorubicin (ADM)/R848 mixed lyophilized powder in bladder perfusion treatment of bladder tumor, tumor mass (Example G3); type: in vivo, mice; conditions: after two bladder perfusions; compound formulation with hydroxypropyl methylcellulose as penetration enhancer
Method: Example G3: Application of doxorubicin (ADM) used in combination with resiquimod (R848) in the treatment of bladder tumor.
The in-situ models of bladder cancer in mice were established by the same method as in Example G1, the mixed lyophilized powder formulation of doxorubicin and […] was prepared for later use, and the mice were randomly divided into groups (Blank: perfusion of 5% glucose solution: ADM: perfusion of the […] solution dissolved in normal saline: R848: perfusion of the resiquimod suspension dispersed in 5% glucose solution: ADM+R848: perfusion of the mixed lyophilized powder formulation of […] and resiquimod dissolved in 5% glucose solution), wherein hydroxypropyl methylcellulose was added as a penetration enhancer component before the compound formulation was used for bladder perfusion treatment. After two times of the bladder perfusion in each group, the bladder cancer in the mice was obtained by dissection, and the tumor mass was recorded.

[4] = 1-9 days, two perfusions; EPI 60 μg, R837 360 μg; compared with blank group
Method: Six mice in each of the four groups were perfused with the same dose of blank ultrapure water (ddH2O), R837 (360 μg), EPI (60 μg) and EPI (60 μg)+R837 (360 μg) for 1 hour, once a week, twice, and the body weight was recorded every other day. […] Next, we used a similar method to evaluate whether there was a usage range for the attenuation effect when EPI and R837 were used in combination in a mass ratio (1:10). Six mice in each of the four groups were perfused with the same dose of blank ultrapure water (ddH2O), R837 (600 μg), EPI (60 μg) and EPI (60 μg)+R837 (600 μg) for 1 hour, and the body weights was recorded every other day.

[5] = tested on: bladder in situ tumor (fLuc-MB49 cells); test: Combined perfusion of EPI and R837 hydrochloride in different ratios for bladder in situ tumor, fluorescence imaging and survival (Example B4); type: in vivo, mice; conditions: for Survival rate: 14th day
[6] = General formulation study of simple mixtures of epirubicin and imiquimod (stability, solubility versus pH); type: physicochemical
bladder cancer = conditions: TMX-101 gel formulation containing R837, bladder perfusion; cited from earlier work
[7] = tested on: bladder in situ tumor (fLuc-MB49 cells); conditions: mouse, in vivo
[8] = Day 0 (before the first perfusion)

Structure (SMILES)	tumor inhibition rate [2] [%]	tumor inhibition rate [3] [%]	Survival rate [5] [%]	Mean fluorescence intensity of bladder in situ tumor tissue, group Mean [5, 8]	Mean fluorescence intensity of bladder in situ tumor tissue, group Mean ([5]; Day 7)	Mean fluorescence intensity of bladder in situ tumor tissue, group Mean ([5]; Day 14)	also measured
COc1cccc2c1C(=O)c1c(O)c3c(c(O)c1C2=O)C[C@@](O)(C(=O)CO)C[C@@H]3O[C@H]1C[C@H](N)[C@H](O[C@@H]2CCCCO2)[C@H](C)O1 [THP, pirarubicin hydrochloride]	28.23	–	–	–	–	–	Survival rate [1]: 60%
COc1cccc2c1C(=O)c1c(O)c3c(c(O)c1C2=O)C[C@@](O)(C(=O)CO)C[C@@H]3O[C@H]1C[C@H](N)[C@H](O)[C@H](C)O1 [DOX, doxorubicin hydrochloride]	–	8.6	–	–	–	–	–
CCOCc1nc2c(N)nc3ccccc3c2n1CC(C)(C)O [Sample R848, resiquimod]	–	21.8	–	–	–	–	–
COc1cccc2c1C(=O)c1c(O)c3c(c(O)c1C2=O)C[C@@](O)(C(=O)CO)C[C@@H]3O[C@H]1C[C@H](N)[C@@H](O)[C@H](C)O1 [EPI, epirubicin hydrochloride]	–	–	67	1.957 10^5	3.893 10^5	10.8 10^5	body weights of the mice [4]: significantly lower; Mean fluorescence intensity of bladder in situ tumor tissue (single mice) ([5]; Day 14, listed as B4-3, hydrochloride): 12.8 10^5 and 10.9 10^5 and 8.7 10^5
CC(C)Cn1cnc2c(N)nc3ccccc3c21 [Sample R837, imiquimod]	38.33	–	100	1.877 10^5	5.922 10^5	9.287 10^5	pH above which imiquimod precipitates from the solution [6]: > 5.0; Mean fluorescence intensity of bladder in situ tumor tissue (single mice) ([5]; Day 7, listed as B4-2): 6.37 10^5 and 5.49 10^5 and 5.35 10^5 and 6.92 10^5 and 6.05 10^5; Mean fluorescence intensity of bladder in situ tumor tissue (single mice) ([5]; Day 14, listed as B4-2): 7.97 10^5 and 10.2 10^5 and 9.04 10^5 and 12.7 10^5 and 7.53 10^5 and 8.28 10^5; safety in clinical trial (bladder cancer): good safety; tumor fluorescence intensity / tumor inhibition effect [7]: no significant tumor inhibition effect
